Results as given in patent US20090149554A1, “WATER-SOLUBLE METAL ALCOHOLATE DERIVATIVES, PRODUCTION METHODS THEREOF, AND SOLID GELATINOUS EXTERNAL PREPARATIONS CONTAINING THE SAME” (SHISEIDO CO., LTD., priority 2005, published 2009).
Read-outs that look alike come from different tables or passages of the source.

Key:
[1] = Solubility of polyhydric alcohol substituted silane derivatives in various solvents; format: physicochemical; details: summary of Table 1
Procedure: Subsequently, the present inventors evaluated the solubility of the thus obtained polyhydric alcohol substituted silane derivatives in various solvents.
The evaluation of solubility was conducted by adding a polyhydric alcohol substituted silane derivative into various solvents so that the concentration would be 5 weight %, mixing and stirring at room temperature, allowing them to stand still, and visually observing the solution state. The evaluation criteria were as follows.

[2] = Gel formation on mixing the product with the same amount of water; format: physicochemical
Procedure: . Then, the mixture was mixed with stirring at room temperature for 48 hours. After the solid catalyst was separated by filtration, ethanol and acetonitrile were distilled away under reduced pressure, and 4.0 g of transparent viscous liquid was obtained.

[3] = Gelation ability in aqueous solution (visual); format: physicochemical; details: room temperature
Procedure: (§1) In order to investigate the gelation ability of the above-described polyhydric alcohol substituted silane derivatives in water, the present inventors visually evaluated the progress of gelation for the 1,3-butylene glycol substituted compound and glycerin substituted compound.
(§2) The gelation ability was evaluated by adding the polyhydric alcohol substituted silane derivative to water or KGM medium to obtain various concentrations, mixing and stirring at room temperature, allowing the solution to stand still, and visually observing the gelation.

[4] = Gelation ability in KGM medium (visual); format: physicochemical; details: room temperature
Procedure: as §1, §2

[5] = target: T1, papain (Carica papaya, UniProt P00784); test: Stabilization of papain enzyme activity in solid gel on storage; format: biochemical
T1 sequence (P00784 134-345): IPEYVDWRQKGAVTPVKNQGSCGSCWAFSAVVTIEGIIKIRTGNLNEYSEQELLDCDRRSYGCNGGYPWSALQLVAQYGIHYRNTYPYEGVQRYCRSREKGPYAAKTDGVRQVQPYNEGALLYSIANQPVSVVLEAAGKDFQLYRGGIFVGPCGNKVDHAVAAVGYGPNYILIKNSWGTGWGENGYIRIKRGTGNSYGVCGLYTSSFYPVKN
Procedure: Into 1 g of water, 0.2 g of the propylene glycol substituted silane derivative, (Si—(OCH2CH2CH2OH)4), was dissolved. Into this solution, 0.2 mL of papain solution (4 μg/mL) was added and mixed, and the samples were charged on a 96-hole plate and allowed to stand for a fixed length of time. Similarly, several test samples were prepared, and they were maintained at various temperatures (0° C., 37° C., room temperature, and 50° C.). After 2 hours and after 3 days, the papain enzyme activity of each sample was measured. The enzyme activity was measured with a plate reader after the enzyme substrate, N-carbobenzoxy-phenylarginine-4-methylcoumarinamide (Z-PheArg-MCA), was directly added into the 96-hole plate and allowed to stand for 20 minutes at room temperature. In Comparative Example 5, the papain enzyme activity was measured in the same way as Example 21 except that the propylene glycol substituted silane derivative was not used.
The values of enzyme activity were standardized by setting the enzyme activity of the comparative example sample that had been stored at 0° C. for 2 hours to 100.0.

## CC(O)CCO[Si](OCCC(C)O)(OCCC(C)O)OCCC(C)O (stereo not drawn) [Si—(OCH2CH2CH2OHCH3)4]
[1]
  Solubility in other organic solvents: excellent solubility in other organic solvents
[2]
  Result of mixing the product with the same amount of water: homogeneous transparent gel
[3]; 10.0 % (wt/vol)
  Appearance (gelation): Colloidal turbidity, slight thickening after about 1 week
[3]; 20.0 % (wt/vol)
  Appearance (gelation): Colloidal turbidity, thickening after 2 days, translucent
[3]; 30.0 % (wt/vol)
  Appearance (gelation): Colloidal turbidity, gelation after 2 days, seeping-out
[4]; 2.9 % (wt/vol)
  Appearance (gelation): Transparent solution, slight thickening after 2 hours, pasty
[4]; 5.3 % (wt/vol)
  Appearance (gelation): Transparent solution, gelation after 1 hour, some
[4]; 10.4 % (wt/vol)
  Appearance (gelation): Transparent solution, gelation after 12 minutes, some
[4]; 19.6 % (wt/vol)
  Appearance (gelation): Transparent solution, gelation (ringing gel) after 2
[4]; 35.4 % (wt/vol)
  Appearance (gelation): Transparent solution, gelation (ringing gel) after 1 minute

## OCC(O)CO[Si](OCC(O)CO)(OCC(O)CO)OCC(O)CO (stereo not drawn) [Glycerin substituted silane derivative, Si—(O—CH2—CHOH—CH2—OH)4]
[2]; room temperature
  Result of mixing the product with the same amount of water: homogeneous transparent gel
[3]; 10.0 % (wt/vol)
  Appearance (gelation): Transparent, thickening after about 1 week, agar-like soft
[3]; 20.0 % (wt/vol)
  Appearance (gelation): Translucent low-viscosity gel after 1 day, some
[3]; 30.0 % (wt/vol)
  Appearance (gelation): Gelation after 1 day, some seeping-out ringing gel
[4]; 2.5 % (wt/vol)
  Appearance (gelation): Transparent solution, slight thickening after 2 hours, pasty
[4]; 5.6 % (wt/vol)
  Appearance (gelation): Transparent solution, gelation after 3 hours, some
[4]; 11.0 % (wt/vol)
  Appearance (gelation): Transparent solution, gelation after 1 hour, some
[4]; 21.0 % (wt/vol)
  Appearance (gelation): Transparent solution, gelation (ringing gel) after 30
[4]; 35.0 % (wt/vol)
  Appearance (gelation): Transparent solution, gelation (ringing gel) after 30

## OCCO[Si](OCCO)(OCCO)OCCO [tetra(2-hydroxyethoxy)silane]
[2]; room temperature
  Result of mixing the product with the same amount of water: homogeneous transparent gel

## OCCCO[Si](OCCCO)(OCCCO)OCCCO [Si—(OCH2CH2CH2OH)4]
[1]
  Solubility in other organic solvents: excellent solubility in other organic solvents
[2]; room temperature
  Result of mixing the product with the same amount of water: homogeneous transparent gel

B1: Comparative Example 5: papain sample prepared as Example 21 except that the propylene glycol substituted silane derivative was not used (protein, UniProt P00784 134-345, looked up)
Papain: IPEYVDWRQKGAVTPVKNQGSCGSCWAFSAVVTIEGIIKIRTGNLNEYSEQELLDCDRRSYGCNGGYPWSALQLVAQYGIHYRNTYPYEGVQRYCRSREKGPYAAKTDGVRQVQPYNEGALLYSIANQPVSVVLEAAGKDFQLYRGGIFVGPCGNKVDHAVAAVGYGPNYILIKNSWGTGWGENGYIRIKRGTGNSYGVCGLYTSSFYPVKN
[5]; After 2 hours, 0° C.
  Papain enzyme activity (standardized, Comparative Example 5 at 0° C. for 2 hours = 100.0): 100.0
[5]; After 2 hours, 37° C.
  Papain enzyme activity (standardized, Comparative Example 5 at 0° C. for 2 hours = 100.0): 98.3
[5]; After 2 hours, 50° C.
  Papain enzyme activity (standardized, Comparative Example 5 at 0° C. for 2 hours = 100.0): 67.1
[5]; After 2 hours, Room temperature
  Papain enzyme activity (standardized, Comparative Example 5 at 0° C. for 2 hours = 100.0): 96.5
[5]; After 3 days, 0° C.
  Papain enzyme activity (standardized, Comparative Example 5 at 0° C. for 2 hours = 100.0): 98.9
[5]; After 3 days, 37° C.
  Papain enzyme activity (standardized, Comparative Example 5 at 0° C. for 2 hours = 100.0): 18.6
[5]; After 3 days, 50° C.
  Papain enzyme activity (standardized, Comparative Example 5 at 0° C. for 2 hours = 100.0): 2.2
[5]; After 3 days, Room temperature
  Papain enzyme activity (standardized, Comparative Example 5 at 0° C. for 2 hours = 100.0): 34.5
